Five compounds from patent US6858591B2, “Antibiotic AA 896 analogs” (Wyeth Holdings Corporation, priority 2001, dated 2005) can be followed below.

In brackets after ≈: the same amount, converted by molar mass. Like-named read-outs stand apart in the source and are kept apart here. A value given as a limit tells only on which side of the number the result lay.

Holding throughout (assay): In vitro MIC, broth dilution
What all share (assay type): cell-based
(In general: In broth dilution the organism is exposed to a series of concentrations in liquid medium.)

One assay deals with E. faecalis GC 4555. As to conditions: Enterococcus faecalis, GC4555. Summed up:
(§1)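 NCCLS broth dilution; Mueller-Hinton II; 5×10^5 CFU/ml; 64-0.06 μg/ml; 18 h, 35 °C, ambient air; MIC read as lowest growth-inhibiting concentration.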

For a further assay, the system named is S. aureus GC 1131. As to conditions: Staphylococcus aureus, GC1131. The procedure, abridged:
as §1

The next assay concerns CNS GC 4537. The procedure, abridged: as §1
The subject of a further assay is S. aureus GC 2216. The note with it: Staphylococcus aureus, GC2216. The procedure, abridged: as §1
Another assay deals with CNS GC 4547. The procedure, abridged: as §1
The test system of the next assay is CNS GC 4538. The procedure, abridged: as §1
The test system of the next assay is S. aureus GC 4536. As to conditions: Staphylococcus aureus, GC4536. The procedure, abridged: as §1
A further assay relates to E. faecalis GC 842. The note with it: Enterococcus faecalis, GC842. The procedure, abridged:
as §1

The subject of another assay is E. faecalis GC 2242. The note with it: Enterococcus faecalis, GC2242. Summed up:
as §1

A further assay relates to M. morganii GC 4531. As to conditions: Morganella morganii, GC4531.
The test system of a further assay is E. coli GC 4559. The note with it: Escherichia coli, GC4559.
The next assay relates to P. aeruginosa GC 2214. As to conditions: Pseudomonas aeruginosa, GC2214.
The next assay relates to P. aeruginosa GC 4532. As to conditions: Pseudomonas aeruginosa, GC4532.
The next assay deals with E. coli GC 3226. As to conditions: Escherichia coli, GC3226.
In the next assay the test system is E. coli GC 4560. As to conditions: Escherichia coli, GC4560.
The next assay has as its system S. marcescens GC 4077. As to conditions: Serratia marcescens, GC4077.
The test system of a further assay is C. albicans GC 3066. The note with it: Candida albicans, GC3066.
The test system of another assay is E. coli GC 2203. The note with it: Escherichia coli, GC2203.
A further assay relates to K. pneumoniae GC 4534. The note with it: Klebsiella pneumoniae, GC4534.
The subject of a further assay is E. cloacae GC 3783. As to conditions: Enterobacter cloacae, GC3783.

The MIC is the least concentration at which growth counts as inhibited. Take `COc1ccc(Cn2c(=O)ccn([C@@H]3OC([C@H](O)[C@H](NCCCNC(=O)CCCCCCCCCCNC(=O)OCC4c5ccccc5-c5ccccc54)C(=O)OC(C)(C)C)[C@@H](O[Si](C)(C)C(C)(C)C)[C@H]3O[Si](C)(C)C(C)(C)C)c2=O)cc1` (stereo partly drawn) [Example 24, tert-Butyl (21S)-21-[(R)-[(3R,4R,5R)-3,4-bis{[tert-butyl(dimethyl)silyl]oxy}-5-(3-(4-methoxybenzyl)-2,4-dioxo-3,4-dihydro-1(2H)-pyrimidinyl)tetrahydro-2-furanyl](hydroxy)methyl]-1-(9H-fluoren-9-yl)-3,15-dioxo-2-oxa-4,16,20-triazadocosan-22-oate]: the MIC in the assay with E. faecalis GC 4555, against S. aureus GC 1131, against CNS GC 4537, with S. aureus GC 2216, with CNS GC 4547 and against CNS GC 4538 was greater than 128 µg/mL each time. For the same compound, the minimum inhibitory concentration (MIC) was greater than 128 µg/mL against S. aureus GC 4536; greater than 128 µg/mL with E. faecalis GC 842; 128 µg/mL (≈ 108 µM) against E. faecalis GC 2242; 128 µg/mL (≈ 108 µM) against M. morganii GC 4531; greater than 128 µg/mL in the assay on E. coli GC 4559; 128 µg/mL (≈ 108 µM) with P. aeruginosa GC 2214. Moreover, the MIC is 128 µg/mL (≈ 108 µM) with P. aeruginosa GC 4532; greater than 128 µg/mL in the assay on E. coli GC 3226; 128 µg/mL (≈ 108 µM) against E. coli GC 4560; 128 µg/mL (≈ 108 µM) against S. marcescens GC 4077; 128 µg/mL (≈ 108 µM) with C. albicans GC 3066; greater than 128 µg/mL in the assay with E. coli GC 2203. Moreover, the MIC in the assay with K. pneumoniae GC 4534 and against E. cloacae GC 3783 was greater than 128 µg/mL each time.
With `COc1ccc(Cn2c(=O)ccn([C@@H]3OC([C@H](O)[C@H](NCCCNC(=O)CCCCCCCCCCN)C(=O)OC(C)(C)C)[C@@H](O[Si](C)(C)C(C)(C)C)[C@H]3O[Si](C)(C)C(C)(C)C)c2=O)cc1` (stereo partly shown) [Example 25], the minimum inhibitory concentration (MIC) was determined as 128 µg/mL (≈ 133 µM) with E. faecalis GC 4555 (E. faecalis GC 4555, read-out: MIC); 128 µg/mL (≈ 133 µM) in the assay on S. aureus GC 1131 (S. aureus GC 1131, read-out: MIC); 64 µg/mL (≈ 66.5 µM) in the assay on CNS GC 4537 (CNS GC 4537, read-out: MIC); 128 µg/mL (≈ 133 µM) in the assay on S. aureus GC 2216 (S. aureus GC 2216, read-out: MIC); 128 µg/mL (≈ 133 µM) in the assay with CNS GC 4547 (CNS GC 4547, read-out: MIC); 64 µg/mL (≈ 66.5 µM) with CNS GC 4538 (CNS GC 4538, read-out: MIC). Also, the MIC was 128 µg/mL (≈ 133 µM) in the assay with S. aureus GC 4536 (S. aureus GC 4536, read-out: MIC); 128 µg/mL (≈ 133 µM) in the assay with E. faecalis GC 842 (E. faecalis GC 842, read-out: MIC); 64 µg/mL (≈ 66.5 µM) with E. faecalis GC 2242 (E. faecalis GC 2242, read-out: MIC); 128 µg/mL (≈ 133 µM) in the assay on M. morganii GC 4531 (M. morganii GC 4531, read-out: MIC); greater than 128 µg/mL in the assay on E. coli GC 4559 (E. coli GC 4559, read-out: MIC); 128 µg/mL (≈ 133 µM) with P. aeruginosa GC 2214 (P. aeruginosa GC 2214, read-out: MIC). The MIC is 128 µg/mL (≈ 133 µM) with P. aeruginosa GC 4532 (P. aeruginosa GC 4532, read-out: MIC); greater than 128 µg/mL in the assay with E. coli GC 3226 (E. coli GC 3226, read-out: MIC); 128 µg/mL (≈ 133 µM) in the assay on E. coli GC 4560 (E. coli GC 4560, read-out: MIC); 128 µg/mL (≈ 133 µM) in the assay with S. marcescens GC 4077 (S. marcescens GC 4077, read-out: MIC); 128 µg/mL (≈ 133 µM) in the assay with C. albicans GC 3066 (C. albicans GC 3066, read-out: MIC); greater than 128 µg/mL in the assay with E. coli GC 2203 (E. coli GC 2203, read-out: MIC). The MIC in the assay on K. pneumoniae GC 4534 (K. pneumoniae GC 4534, read-out: MIC) is greater than 128 µg/mL; with E. cloacae GC 3783 (E. cloacae GC 3783, read-out: MIC) it was greater than 128 µg/mL.
Take `COc1ccc(Cn2c(=O)ccn([C@@H]3OC([C@H](O)[C@H](NCCCNC(=O)[C@@H](NC(=O)[C@H](CCCNC(=N)N[N+](=O)O)NC(=O)N[C@H](C(=O)OCc4ccccc4)C(C)C)[C@@H](O)C(C)C)C(=O)OC(C)(C)C)[C@@H](O[Si](C)(C)C(C)(C)C)[C@H]3O[Si](C)(C)C(C)(C)C)c2=O)cc1` (stereo partly drawn) [Example 26, 1-Benzyl 17-(tert-butyl)(2S,6S,9S,16S)-16-[(R)-[(3R,4R,5R)-3,4-bis{[tert-butyl(dimethyl)silyl]oxy}-5-(3-(4-methoxybenzyl)-2,4-dioxo-3,4-dihydro-1(2H)-pyrimidinyl)tetrahydro-2-furanyl](hydroxy)methyl]-6-(3-{[(2,2-dioxido-2lambda˜1˜-diazanyl)(imino)methyl]amino}propyl)-9-[(1S)-1-hydroxy-2-methylpropyl]-2-isopropyl-4,7,10-trioxo-3,5,8,11,15-pentaazaheptadecane-1,17-dioate]: the MIC against E. faecalis GC 4555, against S. aureus GC 1131, with CNS GC 4537, against S. aureus GC 2216, with CNS GC 4547 and in the assay on CNS GC 4538 was greater than 128 µg/mL throughout. Further, the minimum inhibitory concentration (MIC) is greater than 128 µg/mL against S. aureus GC 4536; greater than 128 µg/mL in the assay on E. faecalis GC 842; 128 µg/mL in the assay on E. faecalis GC 2242; greater than 128 µg/mL against M. morganii GC 4531; greater than 128 µg/mL against E. coli GC 4559; 128 µg/mL with P. aeruginosa GC 2214. Moreover, the MIC against P. aeruginosa GC 4532, in the assay on E. coli GC 3226, in the assay on E. coli GC 4560, against S. marcescens GC 4077, with C. albicans GC 3066 and against E. coli GC 2203 was greater than 128 µg/mL in each case. Moreover, the MIC against K. pneumoniae GC 4534 and against E. cloacae GC 3783 was greater than 128 µg/mL throughout.
Take `COc1ccc(Cn2c(=O)ccn([C@@H]3OC([C@H](O)[C@H](NCCCNC(=O)[C@H](CC(C)C)NC(=O)[C@H](CCCNC(=N)N[N+](=O)O)NC(=O)N[C@H](C(=O)OCc4ccccc4)C(C)C)C(=O)OC(C)(C)C)[C@@H](O[Si](C)(C)C(C)(C)C)[C@H]3O[Si](C)(C)C(C)(C)C)c2=O)cc1` (stereo partly drawn) [Example 28, 1-Benzyl 17-(tert-butyl)(2S,6S,9S,16S)-16-[(R)-[(3R,4R,5R)-3,4-bis{[tert-butyl(dimethyl)silyl]oxy}-5-(3-(4-methoxybenzyl)-2,4-dioxo-3,4-dihydro-1(2H)-pyrimidinyl)tetrahydro-2-furanyl](hydroxy)methyl]-6-(3-{[(2,2-dioxido-2lambda˜1˜-diazanyl)(imino)methyl]amino}propyl)-9-isobutyl-2-isopropyl-4,7,10-trioxo-3,5,8,11,15-pentaazaheptadecane-1,17-dioate]: the MIC in the assay on E. faecalis GC 4555, against S. aureus GC 1131, with CNS GC 4537, against S. aureus GC 2216, in the assay on CNS GC 4547 and in the assay on CNS GC 4538 was greater than 128 µg/mL throughout. In addition, the MIC against S. aureus GC 4536, with E. faecalis GC 842, against E. faecalis GC 2242, with M. morganii GC 4531, in the assay with E. coli GC 4559 and against P. aeruginosa GC 2214 was greater than 128 µg/mL in each case. In addition, the MIC with P. aeruginosa GC 4532, in the assay with E. coli GC 3226, against E. coli GC 4560, against S. marcescens GC 4077, against C. albicans GC 3066 and in the assay on E. coli GC 2203 was greater than 128 µg/mL each time. For the same compound, the MIC against K. pneumoniae GC 4534 and against E. cloacae GC 3783 was greater than 128 µg/mL each time.
In the case of `COc1ccc(Cn2c(=O)ccn([C@@H]3OC([C@H](O)[C@H](NCCCNC(=O)[C@H](CC(C)C)NC(=O)[C@H](CCCNC(=N)N)NC(=O)N[C@H](C(=O)O)C(C)C)C(=O)OC(C)(C)C)[C@@H](O[Si](C)(C)C(C)(C)C)[C@H]3O[Si](C)(C)C(C)(C)C)c2=O)cc1` (stereo partly drawn) [Example 29, (2S,6S,9S,16S)-6-(3-{[Amino(imino)methyl]amino}propyl)-16-[(R)-[(3R,4R,5R)-3,4-bis{[tert-butyl(dimethyl)silyl]oxy}-5-(3-(4-methoxybenzyl)-2,4-dioxo-3,4-dihydro-1(2H)-pyrimidinyl)tetrahydro-2-furanyl](hydroxy)methyl]-9-isobutyl-2-isopropyl-19,19-dimethyl-4,7,10,17-tetraoxo-18-oxa-3,5,8,11,15-pentaazaicosan-1-oic acid], the MIC against E. faecalis GC 4555, against S. aureus GC 1131, against CNS GC 4537, against S. aureus GC 2216, in the assay on CNS GC 4547 and with CNS GC 4538 was greater than 128 µg/mL throughout. Also, the MIC in the assay with S. aureus GC 4536 is greater than 128 µg/mL; with E. faecalis GC 842 it was 128 µg/mL (≈ 107 µM); against E. faecalis GC 2242, 128 µg/mL (≈ 107 µM); against M. morganii GC 4531 it was 128 µg/mL (≈ 107 µM); against E. coli GC 4559, greater than 128 µg/mL; in the assay on P. aeruginosa GC 2214, 128 µg/mL (≈ 107 µM). Moreover, the MIC against P. aeruginosa GC 4532 is 128 µg/mL (≈ 107 µM); with E. coli GC 3226, greater than 128 µg/mL; against E. coli GC 4560, 128 µg/mL (≈ 107 µM); with S. marcescens GC 4077 it was 128 µg/mL (≈ 107 µM); with C. albicans GC 3066 it was greater than 128 µg/mL; against E. coli GC 2203, greater than 128 µg/mL. Further, the MIC in the assay with K. pneumoniae GC 4534 and against E. cloacae GC 3783 was 128 µg/mL (≈ 107 µM) each time.
